{"source": "paper PMC11555231", "about": "(Nature Communications, 2024)", "key": {"Bio-hPADI4 wt": {"molecular_target": "T1, Bio-hPADI4 wt (Homo sapiens, UniProt Q9UM07)", "T1 construct": "PADI4 (residues 1–663); Avi-Tag (biotinylated by BirA); made in house; host or cells: E. coli BL21-DE3 co-expressing BirA", "T1 sequence (Q9UM07 whole entry, the tested form may be a part)": "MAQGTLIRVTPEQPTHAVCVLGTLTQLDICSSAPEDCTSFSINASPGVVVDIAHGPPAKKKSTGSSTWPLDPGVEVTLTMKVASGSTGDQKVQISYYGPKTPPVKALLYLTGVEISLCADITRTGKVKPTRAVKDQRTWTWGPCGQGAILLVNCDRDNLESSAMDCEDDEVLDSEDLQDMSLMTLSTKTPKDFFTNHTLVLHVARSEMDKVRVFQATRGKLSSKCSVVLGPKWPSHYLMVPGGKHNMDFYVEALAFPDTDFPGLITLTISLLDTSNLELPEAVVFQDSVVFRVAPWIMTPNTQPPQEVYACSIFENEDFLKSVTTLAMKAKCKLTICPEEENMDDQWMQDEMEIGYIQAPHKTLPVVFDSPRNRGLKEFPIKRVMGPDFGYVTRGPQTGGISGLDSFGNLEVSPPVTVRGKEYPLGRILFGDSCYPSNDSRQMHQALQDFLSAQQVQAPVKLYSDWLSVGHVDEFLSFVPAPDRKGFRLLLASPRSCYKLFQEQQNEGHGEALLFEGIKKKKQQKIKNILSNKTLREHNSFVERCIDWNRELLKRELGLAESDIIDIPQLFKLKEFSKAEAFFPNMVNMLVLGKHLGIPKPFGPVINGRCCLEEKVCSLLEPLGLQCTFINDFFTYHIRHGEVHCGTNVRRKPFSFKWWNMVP", "test": "Surface plasmon resonance (SPR), single cycle kinetics, peptide binding to immobilised PADI4", "protocol": "Single cycle kinetics analysis by SPR was carried out using a Biacore T200 or S200 and a Biotin CAPture kit, series S (Cytiva). […] 50 mM HEPES (pH 7.5), 150 mM NaCl, 2 mM DTT, 0.05 % Tween-20, 0.1% DMSO and variable CaCl2 (as specified) was used as the running buffer and experiments performed at 25 °C.\nSamples were run with 120 s contact time, and variable dissociation time (often 360 s). Data were analysed using the Biacore T200 analysis software; data was fitted to a 1:1 binding model accounting for baseline drift where necessary. Data are presented as the average ± standard deviation of at least two independent replicates."}, "human neutrophils": {"system": "human neutrophils", "test": "Cholesterol crystal stimulation and NET preparation, immunoblot of citrullinated histone H3", "format": "cell-based", "details": "50 µM peptide pre-incubated 1 h, 1 mg/ml cholesterol crystals", "procedure": "Peripheral venous blood was isolated from consenting healthy adult volunteers in heparin tubes as previously described. Briefly, blood samples were on Histopaque 1119 (Sigma-Aldrich) and then centrifuged for 20 min at 800 × g. The plasma was collected and centrifuged for a second time for 20 min at 800 × g. The neutrophil layer was collected and washed in Hyclone Hank’s Balanced Salt Solution (HBSS) -Ca, -Mg, -Phenol red (GE Healthcare) supplemented with 10 mM HEPES (Invitrogen) 0.1% FBS and further purified with a discontinuous Percoll (GE Healthcare) gradient consisting of layers with densities of 85, 80, 75, 70 and 65% and centrifuged for 20 min at 800 × g. Neutrophil-enriched layers were then collected and washed, and neutrophil purity was assessed using flow cytometry.\nAbout 1 × 10^6 human blood neutrophils were isolated as described in the “Human neutrophils from peripheral blood healthy donors” section. Neutrophils were seeded in 6 well plates in HBSS +Ca, +Mg, -Phenol red (GE Healthcare) containing 10 mM HEPES (Invitrogen), left to settle for 30 min, then pre-incubated with either 50 μM PADI4_3, PADI4_3i or DMSO (0.5%) for 1 h. […] NET DNA concentration was determined by Quant-iT Picogreen dsDNA reagent as per the manufacturer’s instructions (Thermo Fisher Scientific). […]"}}, "note": "Bridge positions count the residues as written; N and C are the ends. Square brackets hold non-standard residues; d marks the D form. Peptide text beside a SMILES is read from it."}
{"compound": "N=C(N)NCCC[C@@H]1NC(=O)[C@H](CC(=O)O)NC(=O)[C@@H](Cc2ccc(O)cc2)NC(=O)CSC[C@@H](C(=O)NCC(N)=O)NC(=O)[C@H](Cc2ccc(O)cc2)NC(=O)[C@H](CCCCN)NC(=O)[C@@H]2CCCN2C(=O)[C@H](Cc2c[nH]cn2)NC(=O)[C@H](CCCNC(=N)N)NC(=O)[C@H](Cc2ccc(O)cc2)NC(=O)[C@H](Cc2c[nH]cn2)NC(=O)[C@H](Cc2c[nH]cn2)NC1=O", "note": "[PADI4_3i] ({CH2CO}-[dY]DRHHYRHPKYCG-NH2; thioether N-12)", "values": [{"measurement": "binding to PADI4 (in words)", "setting": "Bio-hPADI4 wt", "result": "did not bind"}, {"measurement": "citrullination of histone 3 in NET preparations", "setting": "human neutrophils", "result": "abolished by PADI4_3 but not PADI4_3i"}]}
